The values below come from US7420069B2, “Crystalline composition containing escitalopram” (H. Lundbeck A/S, priority 2001, dated 2008).

The data set in a line: Particle size distribution by laser diffraction (Sympatec Helos). In kind it is physicochemical. As to conditions: for particle size: product of the prior process (background statement), method not stated at that place. An excerpt:
As used herein, “particle size distribution” means the cumulative volume size distribution of equivalent spherical diameters as determined by laser diffraction at 1 bar dispersive pressure in a Sympatec Helos equipment. “Median particle size”, correspondingly, means the median of said particle size distribution.
A wet filter cake obtained by precipitation of crude escitalopram oxalate by mixing of ethanolic solutions of escitalopram and oxalic acid, respectively, and containing approximately 35 kg escitalopram oxalate was suspended in 322 L ethanol. The material was dissolved by heating to reflux, and 150 L ethanol was removed by distillation. Cooling was applied, and the mixture was cooled from reflux to 15° C. with a cooling rate between 0.2 and 0.5° C./min in the temperature interval 80 to 40° C. During cooling, the mixture was seeded with escitalopram oxalate at 75, 65 and 60° C. (10 g each time). The crystallization mixture was kept at 15° C. for 10 hours before the crystalline escitalopram oxalate was isolated. Purified escitalopram oxalate (27.7 kg, […]) was obtained by filtration of the crystallization mixture, washing with ethanol and drying of the filter cake.

Structures can show the parent of a compound that is named as a salt.

Consider `CN(C)CCC[C@@]1(c2ccc(F)cc2)OCc2cc(C#N)ccc21.O=C(O)C(=O)O` [Example 1, (S)-1-[3-(dimethylamino)propyl]-1-(4-fluorophenyl)-1,3-dihydro-5-isobenzofurancarbonitrile oxalate], for which the “Particle size distribution, 10% quantile” value (Quantile 10%, cumulative volume size distribution, Sympatec Helos, 1 bar dispersive pressure) is listed as 13 μm. Under “Quantile 50%, cumulative volume size distribution, Sympatec Helos, 1 bar dispersive pressure”, the “Particle size distribution, 50% quantile (median particle size)” value is listed as 163 μm. Moreover, under “Quantile 90%, cumulative volume size distribution, Sympatec Helos, 1 bar dispersive pressure”, the “Particle size distribution, 90% quantile” value stood at 455 μm. For the compound `CN(C)CCCC1(c2ccc(F)cc2)OCc2cc(C#N)ccc21` (centres unmarked) [citalopram hydrobromide, reference compound], the particle size is 2-20 μm.

Take `CN(C)CCC[C@@]1(c2ccc(F)cc2)OCc2cc(C#N)ccc21.O=C(O)C(=O)O` [escitalopram oxalate, (S)-1-[3-(dimethylamino)propyl]-1-(4-fluorophenyl)-1,3-dihydro-5-isobenzofurancarbonitrile oxalate, reference compound]: the particle size is given as 2-20 μm.
